Measurements as given in the supplement of paper PMC7840683.
Structures can show the parent of a compound that is named as a salt. ± gives the standard deviation of the averaged measurements.

Tested on: HepaRG
Assay: LDH release cytotoxicity, % of total lysis control; higher = more cytotoxic
Conditions: 48 h
Summary of the method: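 Single-lot HepaRG cells on collagen I-coated 96-well plates were exposed for 48 h in duplicate, in serum-free induction medium with 0.5% DMSO, to eight-point half-log series (test chemicals top 100 µM). Total lysis wells received 0.1% Triton X, and LDH leakage into 50 µL spent medium was read as resorufin fluorescence (CytoTox-ONE, Tecan Safire). Percent cytotoxicity was normalized to on-plate vehicle and total lysis controls and averaged over the duplicates.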

CCCCC(CC)COC(=O)CCCCC(=O)OCc1ccccc1 (configuration not stated) [Benzyloctyl adipate]
Conditions	LDH release cytotoxicity [%]
0.03162 µM	-0.155 ± 0.27
0.1 µM	-0.43 ± 0.37
0.3162278 µM	0.101 ± 0.76
1 µM	-0.128 ± 1.1
3.16228 µM	1.13 ± 0.71
10 µM	0.566 ± 0.22
31.6228 µM	0.4 ± 0.39
100 µM	1.95 ± 0.065

O=C1c2ccccc2C(=O)N1SC(Cl)(Cl)Cl [Folpet]
Conditions	LDH release cytotoxicity [%]
0.031623 µM	0.571 ± 0.94
0.1 µM	-2.6 ± 0.32
0.316228 µM	-1.27 ± 0.63
1 µM	-1.65 ± 1.3
3.16228 µM	-1.73 ± 0.14
10 µM	-1.49 ± 0.98
31.6228 µM	-0.653 ± 0.48
100 µM	-0.43 ± 1.1

CCCCC1CN(CC2CCOCC2)C(=O)OC12CCN(C1(C)CCN(C(=O)c3c(C)ncnc3C)CC1)CC2 (configuration not stated)
Conditions	LDH release cytotoxicity [%]
0.02846 µM	-1.26 ± 0.92
0.09 µM	-1.45 ± 1.3
0.284605 µM	-0.87 ± 0.88
0.9 µM	-1.55 ± 0.49
2.84605 µM	-1.48 ± 0.091
9 µM	-1.68 ± 0.22
28.4605 µM	-0.822 ± 0.31
90 µM	-0.451 ± 0.11

Oc1ccc(Cl)cc1Cl [2,4-Dichlorophenol]
Conditions	LDH release cytotoxicity [%]
0.03305 µM	-0.867 ± 0.13
0.1045 µM	-1.22 ± 0.36
0.330458 µM	-1.99 ± 0.46
1.045 µM	-1.67 ± 0.36
3.30458 µM	-1.98 ± 0.042
10.45 µM	-1.68 ± 0.079
33.0458 µM	-2.38 ± 0.071
104.5 µM	-0.904 ± 0.016

Cc1ccc(-c2cc(C(F)(F)F)nn2-c2ccc(S(N)(=O)=O)cc2)cc1 [Celecoxib]
Conditions	LDH release cytotoxicity [%]
0.03162 µM	-1.06 ± 0.3
0.1 µM	-0.435 ± 0.23
0.3162278 µM	-0.88 ± 0.78
1 µM	-1.96 ± 0.9
3.16228 µM	-1.21 ± 1
10 µM	-0.583 ± 0.15
31.6228 µM	3.13 ± 1.4
100 µM	89.34 ± 0.16

CC(C)(O)c1ccc(CNC(=O)c2cccnc2Oc2ccc(F)cc2)cc1
Conditions	LDH release cytotoxicity [%]
0.03162 µM	-1.22 ± 0.93
0.1 µM	-1.42 ± 0.31
0.3162278 µM	-0.81 ± 0.042
1 µM	-1.975 ± 0.0046
3.16228 µM	-0.936 ± 0.39
10 µM	-0.88 ± 0.74
31.6228 µM	-1.34 ± 0.14
100 µM	-1.94 ± 0.87

NC(N)=O [Urea]
Conditions	LDH release cytotoxicity [%]
0.03162 µM	-1.69 ± 0.59
0.1 µM	-0.896 ± 0.18
0.3162278 µM	-1.17 ± 0.012
1 µM	-1.62 ± 0.5
3.16228 µM	-0.792 ± 0.012
10 µM	-0.693 ± 0.13
31.6228 µM	-1.24 ± 0.23
100 µM	1.24 ± 0.49

CC(C)c1cccc(C(C)C)c1 [1,3-Diisopropylbenzene]
Conditions	LDH release cytotoxicity [%]
0.031623 µM	-1.99 ± 0.73
0.1 µM	-2.55 ± 1.5
0.316228 µM	-2.42 ± 1.3
1 µM	-4.25 ± 0.7
3.16228 µM	-3.82 ± 0.32
10 µM	-2.51 ± 1.5
31.6228 µM	-1.16 ± 0.34
100 µM	0.451 ± 1.2

COc1nc(NC(C)C)nc(NC(C)C)n1 [Prometon]
Conditions	LDH release cytotoxicity [%]
0.03162 µM	-0.0909 ± 0.068
0.1 µM	-0.994 ± 0.017
0.3162278 µM	-1.1 ± 0.4
1 µM	-1.18 ± 0.78
3.16228 µM	-1.26 ± 0.4
10 µM	-1.06 ± 0.7
31.6228 µM	-0.722 ± 0.4
100 µM	-0.643 ± 0.89

CCCCCc1ccc(N)cc1 [4-Pentylaniline]
Conditions	LDH release cytotoxicity [%]
0.03162 µM	-0.0179 ± 1.1
0.1 µM	-1.43 ± 0.21
0.3162278 µM	-0.689 ± 0.038
1 µM	-0.976 ± 0.26
3.16228 µM	-0.886 ± 0.18
10 µM	-0.634 ± 0.16
31.6228 µM	-0.209 ± 0.75
100 µM	1.34 ± 0.21

O=P1(N(CCCl)CCCl)NCCCO1 (configuration not stated) [Cyclophosphamide monohydrate]
Conditions	LDH release cytotoxicity [%]
0.03162 µM	-1.01 ± 0.51
0.1 µM	-1.29 ± 0.25
0.3162278 µM	-1.53 ± 0.08
1 µM	-1.41 ± 0.039
3.16228 µM	-1.5 ± 0.48
10 µM	-0.484 ± 0.23
31.6228 µM	-0.76 ± 0.39
100 µM	1.23 ± 0.55

CCCCOC(=O)CC(CC(=O)OCCCC)(OC(C)=O)C(=O)OCCCC [Acetyl tributyl citrate]
Conditions	LDH release cytotoxicity [%]
0.03162 µM	-1.13 ± 2
0.1 µM	-1.34 ± 0.08
0.3162278 µM	-1.35 ± 0.17
1 µM	-1.86 ± 1.8
3.16228 µM	-1.7 ± 0.77
10 µM	-0.33 ± 1.3
31.6228 µM	-0.458 ± 0.058
100 µM	0.439 ± 0.83

CN(C)C(=O)NC1(c2ccccc2)CCN(CCC2(c3ccc(F)c(F)c3)CN(C(=O)c3ccccc3)CCO2)CC1 (configuration not stated)
Conditions	LDH release cytotoxicity [%]
0.0297254 µM	-1.81 ± 0.57
0.094 µM	-1.79 ± 0.3
0.297254 µM	-2.55 ± 0.21
0.94 µM	-1.66 ± 1.4
2.97254 µM	-1.69 ± 1.1
9.4 µM	-1.59 ± 0.17
29.72541 µM	0.14 ± 0.97
94 µM	13.5 ± 2.6

CC(C)(C)c1ccc(O)c(C(C)(C)C)c1 [2,4-Di-tert-butylphenol]
Conditions	LDH release cytotoxicity [%]
0.03162 µM	-2.05 ± 0.42
0.1 µM	-1.71 ± 0.24
0.3162278 µM	-1.9 ± 1.1
1 µM	-2.07 ± 0.9
3.16228 µM	-1.83 ± 0.043
10 µM	-1.53 ± 0.18
31.6228 µM	-0.783 ± 0.87
100 µM	0.8 ± 0.4

CCOP(=S)(OCC)Oc1cc(C)nc(C(C)C)n1 [Diazinon]
Conditions	LDH release cytotoxicity [%]
0.03162 µM	-0.351 ± 0.5
0.1 µM	-0.469 ± 0.17
0.3162278 µM	-1.1 ± 0.52
1 µM	-1.24 ± 0.3
3.16228 µM	0.347 ± 0.03
10 µM	-0.4 ± 0.31
31.6228 µM	-0.512 ± 0.59
100 µM	0.528 ± 0.71

CC1C(c2ccc(Cl)cc2)SC(=O)N1C(=O)NC1CCCCC1 (configuration not stated) [Hexythiazox]
Conditions	LDH release cytotoxicity [%]
0.03162 µM	-0.985 ± 0.63
0.1 µM	-2.1 ± 0.29
0.3162278 µM	-1.93 ± 0.23
1 µM	-1.79 ± 0.32
3.16228 µM	-1.86 ± 0.39
10 µM	-2.05 ± 0.75
31.6228 µM	1.36 ± 1.8
100 µM	6.86 ± 1.2

C=C(C)C(=O)[O][Sn]([CH2]CCC)([CH2]CCC)[CH2]CCC [Tributyltin methacrylate]
Conditions	LDH release cytotoxicity [%]
0.03162 µM	-1.27 ± 0.67
0.1 µM	-1.27 ± 0.21
0.3162278 µM	-0.912 ± 0.44
1 µM	-1.5 ± 0.47
3.16228 µM	37.9 ± 0.45
10 µM	56.38 ± 0.14
31.6228 µM	55.58 ± 0.35
100 µM	59.2 ± 1.2

NC(=O)N1C(=O)C(C(=O)c2cc(Cl)cs2)c2cc(F)c(Cl)cc21 (configuration not stated)
Conditions	LDH release cytotoxicity [%]
0.03162 µM	-0.6756 ± 0.0047
0.1 µM	-0.635 ± 1.4
0.3162278 µM	-0.381 ± 0.96
1 µM	-0.761 ± 0.069
3.16228 µM	-0.334 ± 0.65
10 µM	1.12 ± 0.053
31.6228 µM	64.6 ± 1
100 µM	50.6 ± 8.4

CCNC(=O)NC(=O)C(C#N)=NOC [Cymoxanil]
Conditions	LDH release cytotoxicity [%]
0.03162 µM	-0.835 ± 0.83
0.1 µM	-1.41 ± 0.052
0.3162278 µM	-2 ± 0.79
1 µM	-1.41 ± 0.59
3.16228 µM	-2.17 ± 0.8
10 µM	-0.806 ± 1.1
31.6228 µM	-0.354 ± 1
100 µM	1.89 ± 2.3
